Laboratory results: the supplement of paper PMC10733146

Tests used:
Assay in all cases: viability relative to DMSO control (fraction); higher = less drug effect (more viable cells)
Details in all cases: 48 h
[1] = test system: primary AML patient cells (S085)
Method in brief: (§1)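 The cells were primary mononuclear tumour cells, either fresh or cryopreserved, isolated by Ficoll from blood or bone marrow or derived from processed lymph node. Each well of a 384-well plate received 4 × 10^4 cells onto compounds pre-plated at five concentrations, with one well per concentration. The medium was RPMI-1640 with penicillin/streptomycin, L-glutamine and human serum, and plates stood at 37 °C and 5% CO2 for 48 h. Viability is reported as CellTiter-Glo luminescence relative to the median of 16 inner DMSO wells.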

[2] = test system: primary AML patient cells (S025)
Method in brief: as §1

[3] = test system: primary AML patient cells (S011)
Method in brief: as §1

[4] = test system: primary AML patient cells (S002)
Method in brief: as §1

[5] = test system: primary CLL patient cells (S043)
Method in brief: as §1

[6] = test system: primary AML patient cells (S060)
Method in brief: as §1

[7] = test system: primary BL patient cells (S005)
Method in brief: as §1

[8] = test system: primary ALL patient cells (S088)
Method in brief: as §1

[9] = test system: primary B-PLL patient cells (S016)
Method in brief: as §1

[10] = test system: primary AML patient cells (S071)
Method in brief: as §1

[11] = test system: primary AML patient cells (S081)
Method in brief: as §1

[12] = test system: primary AML patient cells (S019)
Method in brief: as §1

[13] = test system: primary AML patient cells (S021)
Method in brief: as §1

[14] = test system: primary AML patient cells (S017)
Method in brief: as §1

CC(C)C[C@H](NC(=O)CNC(=O)c1cc(Cl)ccc1Cl)B(O)O [Ixazomib]
viability ([1]; 0.008 µM): 0.842 | viability ([1]; 0.04 µM): 0.977 | viability ([1]; 0.2 µM): 0.807 | viability ([1]; 1 µM): 0.911 | viability ([1]; 5 µM): 1.08 | viability ([2]; 0.008 µM): 0.932 | viability ([2]; 0.04 µM): 0.95 | viability ([2]; 0.2 µM): 0.952 | viability ([2]; 1 µM): 1.02 | viability ([2]; 5 µM): 1.08 | viability ([3]; 0.008 µM): 0.957 | viability ([3]; 0.04 µM): 1.15 | viability ([3]; 0.2 µM): 0.891 | viability ([3]; 1 µM): 1.06 | viability ([3]; 5 µM): 1.03 | viability ([4]; 0.008 µM): 0.843 | viability ([4]; 0.04 µM): 0.979 | viability ([4]; 0.2 µM): 0.932 | viability ([4]; 1 µM): 0.972 | viability ([4]; 5 µM): 0.933 | viability ([5]; 0.008 µM): 0.915 | viability ([5]; 0.04 µM): 0.73 | viability ([5]; 0.2 µM): 0.987 | viability ([5]; 1 µM): 0.74 | viability ([5]; 5 µM): 0.781 | viability ([6]; 0.008 µM): 1.03 | viability ([6]; 0.04 µM): 0.988 | viability ([6]; 0.2 µM): 1.03 | viability ([6]; 1 µM): 1.02 | viability ([6]; 5 µM): 1.01 | viability ([7]; 0.008 µM): 1.61 | viability ([7]; 0.04 µM): 0.944 | viability ([7]; 0.2 µM): 1.56 | viability ([7]; 1 µM): 0.939 | viability ([7]; 5 µM): 0.945 | viability ([8]; 0.008 µM): 0.741 | viability ([8]; 0.04 µM): 0.839 | viability ([8]; 0.2 µM): 0.793 | viability ([8]; 1 µM): 0.851 | viability ([8]; 5 µM): 0.996 | viability ([9]; 0.008 µM): 0.929 | viability ([9]; 0.04 µM): 0.946 | viability ([9]; 0.2 µM): 0.987 | viability ([9]; 1 µM): 1 | viability ([9]; 5 µM): 0.913 | viability ([10]; 0.008 µM): 1.01 | viability ([10]; 0.04 µM): 0.972 | viability ([10]; 0.2 µM): 0.995 | viability ([10]; 1 µM): 0.98 | viability ([10]; 5 µM): 0.974 | viability ([11]; 0.008 µM): 0.987 | viability ([11]; 0.04 µM): 0.96 | viability ([11]; 0.2 µM): 0.901 | viability ([11]; 1 µM): 0.95 | viability ([11]; 5 µM): 0.981 | viability ([12]; 0.008 µM): 0.525 | viability ([12]; 0.04 µM): 0.757 | viability ([12]; 0.2 µM): 0.633 | viability ([12]; 1 µM): 0.786 | viability ([12]; 5 µM): 0.936 | viability ([13]; 0.008 µM): 0.927 | viability ([13]; 0.04 µM): 1 | viability ([13]; 0.2 µM): 0.983 | viability ([13]; 1 µM): 1.14 | viability ([13]; 5 µM): 1.09 | viability ([14]; 0.008 µM): 0.923 | viability ([14]; 0.04 µM): 0.963 | viability ([14]; 0.2 µM): 0.834 | viability ([14]; 1 µM): 0.942 | viability ([14]; 5 µM): 0.979

O=C(Nc1cccc(C(F)(F)F)c1)Nc1cc(S(=O)(=O)NC2CC2)ccc1-c1ccsc1 [AGI-6780]
viability ([1]; 0.024 µM): 0.793 | viability ([1]; 0.12 µM): 0.809 | viability ([1]; 0.6 µM): 0.734 | viability ([1]; 3 µM): 0.672 | viability ([1]; 15 µM): 0.691 | viability ([2]; 0.024 µM): 0.949 | viability ([2]; 0.12 µM): 1.06 | viability ([2]; 0.6 µM): 0.978 | viability ([2]; 3 µM): 0.905 | viability ([2]; 15 µM): 0.839 | viability ([3]; 0.024 µM): 0.76 | viability ([3]; 0.12 µM): 0.761 | viability ([3]; 0.6 µM): 0.802 | viability ([3]; 3 µM): 0.778 | viability ([3]; 15 µM): 0.666 | viability ([4]; 0.024 µM): 0.785 | viability ([4]; 0.12 µM): 0.822 | viability ([4]; 0.6 µM): 0.816 | viability ([4]; 3 µM): 0.798 | viability ([4]; 15 µM): 0.689 | viability ([5]; 0.024 µM): 0.927 | viability ([5]; 0.12 µM): 1.05 | viability ([5]; 0.6 µM): 0.988 | viability ([5]; 3 µM): 0.905 | viability ([5]; 15 µM): 0.935 | viability ([6]; 0.024 µM): 0.963 | viability ([6]; 0.12 µM): 1 | viability ([6]; 0.6 µM): 0.991 | viability ([6]; 3 µM): 0.886 | viability ([6]; 15 µM): 0.91 | viability ([7]; 0.024 µM): 0.818 | viability ([7]; 0.12 µM): 0.915 | viability ([7]; 0.6 µM): 0.932 | viability ([7]; 3 µM): 0.778 | viability ([7]; 15 µM): 0.886 | viability ([8]; 0.024 µM): 0.408 | viability ([8]; 0.12 µM): 0.417 | viability ([8]; 0.6 µM): 0.322 | viability ([8]; 3 µM): 0.258 | viability ([8]; 15 µM): 0.205 | viability ([9]; 0.024 µM): 0.776 | viability ([9]; 0.12 µM): 0.947 | viability ([9]; 0.6 µM): 0.954 | viability ([9]; 3 µM): 0.851 | viability ([9]; 15 µM): 0.981 | viability ([10]; 0.024 µM): 0.803 | viability ([10]; 0.12 µM): 0.828 | viability ([10]; 0.6 µM): 0.826 | viability ([10]; 3 µM): 0.78 | viability ([10]; 15 µM): 0.607 | viability ([11]; 0.024 µM): 0.829 | viability ([11]; 0.12 µM): 0.956 | viability ([11]; 0.6 µM): 0.878 | viability ([11]; 3 µM): 0.756 | viability ([11]; 15 µM): 0.841 | viability ([12]; 0.024 µM): 1.17 | viability ([12]; 0.12 µM): 1.26 | viability ([12]; 0.6 µM): 1.27 | viability ([12]; 3 µM): 1.13 | viability ([12]; 15 µM): 1.18 | viability ([13]; 0.024 µM): 0.881 | viability ([13]; 0.12 µM): 0.894 | viability ([13]; 0.6 µM): 0.878 | viability ([13]; 3 µM): 0.891 | viability ([13]; 15 µM): 0.676 | viability ([14]; 0.024 µM): 0.881 | viability ([14]; 0.12 µM): 0.938 | viability ([14]; 0.6 µM): 0.919 | viability ([14]; 3 µM): 0.908 | viability ([14]; 15 µM): 0.982
